Data reported in patent publication US10844002B2, “Lipids and lipid compositions for the delivery of active agents” (priority 2014, dated 2020).

Assay: Measurement of mRNA encapsulation in lipid nanoparticles (Quant-iT Ribogreen)
Format: physicochemical
Conditions: LNP cationic lipid/DSPC/cholesterol/stealth lipid, N:P 4:1, leptin mRNA
Description: All equipment and disposable supplies are certified free of RNase activity by the manufacturer or rendered RNase free by use of the RNaseZap reagent (LifeTechnologies). mRNA is encapsulated at a cationic lipid amine to mRNA phosphate (N:P) molar ratio of 4:1. Lipids (cationic lipid, DSPC, cholesterol and lipidated PEG or stealth lipid) are dissolved in ethanol. The molar ratios are 40:10:38:2, respectively. The mixture is sonicated briefly, then gently agitated for 5 minutes and then maintained at 37° C. until use. mRNA is exchanged into citrate buffer pH 5.8-6.0 by use of Amicon Ultra-15 centrifugal concentrators, and the final concentration is adjusted to 0.5 mg/ml and held at 37° C. until use. An equal volume of lipids in ethanol, mRNA in citrate buffer, and citrate buffer alone are drawn into disposable syringes. Tubing leading from syringes containing lipids and mRNA are attached to the T junction, and tubing leading from the syringe containing citrate buffer alone is paired with the tubing exiting the T-junction over a collection vessel containing a stir bar on an active stir plate. Syringes are placed in a syringe pump set to expel contents at a flow rate of 1 ml per minute.
The pump is activated, and the collected mRNA in lipid nanoparticles is transferred to SnakeSkin dialysis tubing (10,000 MWCO, Thermo Scientific). Material is dialyzed against RNAse- and pyrogen-free 1× phosphate buffered saline overnight at 4° C.
Percent encapsulation of mRNA in lipid nanoparticles is determined using the Quant-iT Ribogreen RNA Assay kit (Life Technologies). The LNP-mRNA suspension is assayed in buffer (mRNA outside the particle), and buffer plus Triton X-100 detergent (total mRNA). The difference calculated is the mRNA inside the particle. Prepare a 1000 ng/mL stock from the RNA provided in the kit and use this to generate a standard curve (0 ng/ml, 15.63-1000 ng/ml) in TE and TE+0.75% Triton X-100. Prepare LNP-mRNA samples in TE buffer and TE buffer+0.75% Triton X-100 with appropriate dilution so that reading is in the range of standard curve (400-2,000 fold). In a 384-well plate (Costar non-treated #3573) add 0.04 ml of standard (in duplicate) or sample (in triplicate) per well. Dilute Ribogreen reagent 240-fold in TE buffer and add 0.06 ml per well. Mix contents of wells and measure fluorescence (excitation=480 nm, emission=520 nm). Subtract background values (no RNA) from standard and test sample values and determine the concentrations of RNA in the samples using the standard curves. Determine the percent encapsulation of the sample by dividing the difference in concentrations between sample+triton and sample in buffer alone by the sample+triton concentration.

For `CCCCC/C=C\C/C=C\CCCCCCCCOc1ccc(OCCCCCCCC/C=C\C/C=C\CCCCC)c(COC(=O)CCCN(C)C)c1` [Example 1, 2,5-bis((9Z,12Z)-octadeca-9,12-dien-1-yloxy)benzyl 4-(dimethylamino)butanoate], the “% encapsulation (mRNA Leptin)” value was 73.3%.
